This series can be described thus: Human HepG2 cell viability assay in 384 well format. Type of series: toxicity, cell-based. Set-up: dose 125 nL, time 70.5 hour; concentration not given beside the values. Particulars: HepG2 cells, read-out: Inhibition.
`Cc1nnnn1CCC(=O)N1CCC2(CCC(=O)N(CC3CC3)C2)CC1`: the cytotoxicity at 70.5 h was -8.64%.
The same measure for `CC1CCN(S(=O)(=O)c2ccc(C(=O)N3CCSCC3)cc2)CC1`: -13%; for `COCCN(C/C=C/c1ccccc1)Cc1ncc[nH]1`: -5.41%.
To `O=C(NCCCn1ccnc1)c1cccnc1OCC(F)(F)F` belongs 4.36%; to `CCc1nc2n(n1)CC(NCCC(=O)Nc1cc(C)on1)CC2` (stereo not drawn), -6.35%; to `CC(C)C(=O)N1CCc2onc(C(=O)NCCN(C)C)c2C1`, -5.11%.
To `CCn1cc(C(=O)N2CCCC(c3noc(C)n3)C2)cn1` (stereo not drawn) belongs -2.74%; to `O=C(CCn1cncn1)NCC(c1ccco1)N1CCCCC1` (stereo not drawn), 7%.
Take `O=C(c1ccccn1)N1CC[C@@H](N2CCOCC2)[C@@H]1Cc1ccccc1`: the cytotoxicity at 70.5 h is -10.4%.
To `COc1cccc(CNC(=O)Cn2ccc3c(C)nn(C)c3c2=O)c1` belongs -5.8%; to `Cc1nn(C)cc1CN1CCCCCC1c1ccc(Cl)cc1` (stereo not drawn), 6.75%.
The same measure for `CC(C)c1ccc(-n2nnc(C(=O)O)c2-c2ccccn2)cc1`: -24.1%.
To `Cc1ncc(CN(C)c2nc3c(cnn3C(C)(C)C)c(=O)[nH]2)s1` belongs 11.8%.
In the case of `Fc1cnc(N2CCO[C@H]3CN(CC4CCC4)C[C@H]32)nc1`, the cytotoxicity at 70.5 h is -0.999%.
The same measure for `O=C(c1cccs1)N1CC[C@H]2[C@@H]1CCC(=O)N2c1cccnc1`: -11.5%.
On to `CCOc1cccc(NS(=O)(=O)c2cc(C(=O)O)cs2)c1`, for which the cytotoxicity at 70.5 h was -11.8%.
For `CSCCC(C)NC(=O)N1CCSC(C)(C)C1` (stereo not drawn), the cytotoxicity at 70.5 h amounted to 22.4%.
The same measure for `c1cn2c(n1)CO[C@@H](CNCc1ccc3c(c1)OCO3)C2`: -4.1%; for `COC(=O)[C@@H]1CN(C(=O)Nc2ccccc2)CCN1C(C)=O`: -7%.
The same measure for `CN(C)C(=O)[C@H]1C[C@H]2OCC[C@H]2N(Cc2ccc3c(c2)OCO3)C1`: 0.648%; for `N#Cc1cccc(CN2CCCC2c2ccc[nH]2)c1` (stereo not drawn): 15.2%.
To `CC(C)COCC1CN(Cc2ccco2)Cc2ncn(C)c21` (stereo not drawn) belongs -6.93%; to `O=C(NCc1cccc(N2CCCCC2=O)c1)[C@@H](O)c1ccccc1`, -7.54%.
For `CNc1ccc(C2CN(c3cc(C)nc(N)n3)CCO2)nc1` (stereo not drawn), the cytotoxicity at 70.5 h was -2.26%.
As for `Cc1cn[nH]c1C1CCCCN1C(=O)CCc1ccc(F)cc1` (stereo not drawn), the cytotoxicity at 70.5 h is -6.22%.
On to `O=C(O)COCC(=O)NC1CC2(CCCCC2)Oc2ccccc21` (stereo not drawn), for which the cytotoxicity at 70.5 h is 18.3%.
To `Cc1nccn1-c1ccc(NS(=O)(=O)c2cnn(C)c2)cn1` belongs -4.84%; to `CCCOCCN1CCC2(CC1)CC(c1ccccc1)C(=O)N2C` (stereo not drawn), 25.1%.
As to `Cc1cccc(CN2CCOCC3(CCN(C4CCOCC4)C3)C2)n1` (stereo not drawn), the cytotoxicity at 70.5 h worked out at 7.65%.
As to `Cc1cc(C2CCC2)nc(NCC(C)(C)N2CCCC2)n1`, the cytotoxicity at 70.5 h is -16.9%.
Regarding `CCOCCN1CCCC1CS(N)(=O)=O` (stereo not drawn), the cytotoxicity at 70.5 h was -10.1%.
On to `CCCc1nc(N2CCCCC2)c2c(n1)c(C)nn2CC`, for which the cytotoxicity at 70.5 h is 15.4%.
As to `Fc1cnc(N2CCOCC3(CCCN(c4cnccn4)C3)C2)nc1` (stereo not drawn), the cytotoxicity at 70.5 h was -3.83%.
With `Cc1ccccc1OCC(=O)NCC(c1ccc(N(C)C)cc1)N(C)C` (stereo not drawn), the cytotoxicity at 70.5 h is 29.2%.
`O=C([C@H]1CCCO1)N1CCCC2(COCCN(c3ccccc3)C2)C1` (stereo partly drawn): the cytotoxicity at 70.5 h is -10.4%.
Regarding `O=S1(=O)NC2(CCCN(CCc3ccccc3)C2)COc2ccccc21` (stereo not drawn), the cytotoxicity at 70.5 h came out at 0.68%.
The same measure for `COc1ccc2nnc(CCC(=O)Nc3nc4c(s3)CCC4)n2n1`: -25.1%; for `CCCN1CCN(Cc2cc3cc(OCC)ccc3[nH]c2=O)CC1`: -6.17%.
Take `Cc1cc(C)nc(NC(C)Cc2cnccn2)n1` (stereo not drawn): the cytotoxicity at 70.5 h is -14%.
For the molecule `Cc1nc2c(c(=O)n1C)CCN(C(=O)CCc1ccccn1)CC2`, the cytotoxicity at 70.5 h is -5.46%.
The same measure for `O=C(c1cccnc1)N1CCN2C[C@H](Oc3cncnc3)C[C@H]2C1`: -1.31%; for `O=C(c1cnccn1)N1CCCC(Cc2ccccn2)C1` (stereo not drawn): 4.02%.
The same measure for `COc1ccc(-c2nonc2N)cc1`: -0.886%; for `CC(C)(O)CCc1ccc(C(=O)N2CCN(CC3CCCC3)CC2)cc1`: 4.24%.
The same measure for `Cc1nnc(CN(C)C2CCN(CCc3cccs3)C2)n1C` (stereo not drawn): 15.2%; for `CC(CNC1CCN(c2ccccn2)CC1)Oc1ccc(F)cc1` (stereo not drawn): 23.5%; for `COCCN(C)C(=O)c1nc2c(s1)CCCN2C`: 11.8%.
In the case of `O=C(Cc1cccs1)N1CC(c2nc(-c3cnccn3)no2)C1`, the cytotoxicity at 70.5 h was -6.93%.
On to `Cc1cn2nc(N3CCCC3CC(C)(C)C)sc2n1` (stereo not drawn), for which the cytotoxicity at 70.5 h was -4.57%.
The same measure for `CN1C(=O)CC(c2cnn(C)c2)C12CCN(C(=O)c1ccc[nH]1)CC2` (stereo not drawn): -5.07%; for `Cc1n[nH]c(C)c1CCC(=O)NCC1(O)CCN(c2ccccn2)C1` (stereo not drawn): -1.98%.
As to `Cc1ccc(-c2cn[nH]c2C2CCCN(c3cnccn3)C2)cc1` (stereo not drawn), the cytotoxicity at 70.5 h was found to be 10.6%.
The same measure for `Cc1cnc(N2CCOC3(COCCN(c4nccs4)C3)C2)nc1` (stereo not drawn): -4.6%.
On to `CCc1noc(CN(C)C(=O)C(C)(C)Oc2cccc(Cl)c2)n1`, for which the cytotoxicity at 70.5 h was determined as 7.49%.
The same measure for `CC(C)(C)c1ncc(CNCC2CN(C3CC3)CCO2)s1` (stereo not drawn): -2.48%; for `COc1ncccc1NC(=O)NC1CCCN(c2ncccn2)C1` (stereo not drawn): 1.22%.
As for `O=C(c1ccoc1)N1CCN(Cc2ccccc2F)CC1`, the cytotoxicity at 70.5 h is -3.32%.
The same measure for `c1cncc(COCC2CN(Cc3cccnc3)Cc3ccnn3C2)c1` (stereo not drawn): -9.95%; for `CN(C)CCNC(=O)c1noc2c1CN(C(=O)N(C)C)CC2`: -6.62%; for `Cc1cnc(CN(C)C2CCN(Cc3nc4ccccc4n3C)C2)o1` (stereo not drawn): 25.2%.
Consider `CCN1CCO[C@@H]2CN(C(=O)c3cocn3)C[C@@H]2C1`, for which the cytotoxicity at 70.5 h turned out to be 34.2%.
Take `CC(C)CN1CC2(CCN(C(=O)c3nc4ncccn4n3)CC2)CC1=O`: the cytotoxicity at 70.5 h was -17.1%.
Take `CN(C)CCOCc1cncc2c1CCN(Cc1ccccn1)C2`: the cytotoxicity at 70.5 h was -10.9%.
`COc1ccc(C)cc1CC(=O)NS(=O)(=O)c1ccc(C(N)=O)cc1`: the cytotoxicity at 70.5 h is -6.98%.
The same measure for `O=C(C1CCCC1)N1CCCC1c1nnc2n1CCCCC2` (stereo not drawn): 1.94%; for `COCCNC(=O)c1nc2c(s1)CCCN2c1ccc(C)nn1`: 0.81%; for `COC(=O)CNC(=O)c1nc(Cl)sc1C(C)C`: 24.5%.
`CCc1ccc(CN2CCN(CCOC)[C@@H]3CS(=O)(=O)C[C@@H]32)cc1`: the cytotoxicity at 70.5 h stood at 1.39%.
Consider `Cc1ccc(C(=O)NCCS(=O)(=O)N2CCSCC2)o1`, for which the cytotoxicity at 70.5 h was found to be 3.19%.
To `O=C1CO[C@H](c2ccc(NS(=O)(=O)Cc3ccccc3)cc2)[C@@H](CO)N1` belongs 12%; to `CSC(C)(C)CNC(=O)NC(c1nnc2n1CCC2)C(C)C` (stereo not drawn), -3.59%.
To `O=C1CCC2(CCN(Cc3nccs3)CC2)N1Cc1ccccc1` belongs -7.75%; to `COc1cccc2c1OCCCN(Cc1ncccc1C(=O)O)C2`, -3.58%.
For `Cc1cc2nc(O)c(O)nc2cc1S(=O)(=O)NC1CC1`, the cytotoxicity at 70.5 h is -12.3%.
To `Cc1cc(C)c2c(NC(C)c3nncn3C3CCCC3)ncnc2n1` (stereo not drawn) belongs -4.92%.
As to `CCN(CC(=O)N(C)C)C(=O)c1cc(-c2cccc(Cl)c2)no1`, the cytotoxicity at 70.5 h turned out to be 3.05%.
Take `COCCN(Cc1cccs1)c1nc(CCN)nc2ccccc12`: the cytotoxicity at 70.5 h was -9.93%.
`CC1(C)Cc2nc(C(C)(C)C)ncc2C(NC(=O)Cc2nnn[nH]2)C1` (stereo not drawn): the cytotoxicity at 70.5 h was 52.3%.
As for `COc1ccc(C(=O)N2CC[C@H](CO)[C@H](O)C2)c(C)c1`, the cytotoxicity at 70.5 h is -4.34%.
`Cc1nc(C(C)C)sc1C(=O)N(C)Cc1nc(-c2ccccn2)no1`: the cytotoxicity at 70.5 h is -9.57%.
In the case of `CCCS(=O)(=O)CC(=O)Nc1cc(CC(C)(C)C)n[nH]1`, the cytotoxicity at 70.5 h was -0.508%.
To `CC(SCCC(=O)NC(N)=O)c1c(F)cccc1F` (stereo not drawn) belongs -10.5%; to `NS(=O)(=O)c1cnn(CC(=O)Nc2c(Cl)cccc2Cl)c1`, -5.76%; to `Nc1nc(CCC(=O)N2CCOC(CC3CCCCC3)C2)cs1` (stereo not drawn), -2.5%.
The same measure for `CCc1nccn1C1CCCN(C(=O)c2c(C)nsc2NC)C1` (stereo not drawn): -7.79%; for `Cc1cc(C)n(CC2CCCN2CCc2ccncc2)n1` (stereo not drawn): 17.9%; for `O=C(c1ccccc1C(F)(F)F)N1CC[C@@H](N2CCC(O)CC2)[C@H](O)C1`: -1.82%.
The same measure for `CCN(CC)c1ncc(S(=O)(=O)c2cccc(C)c2)c(N)n1`: 25.6%; for `Cc1occc1C(=O)N1C[C@@H](C(=O)N2CCCCO2)C[C@H]2OCC[C@H]21`: -7.27%; for `COC[C@@]12CC[C@@H](N3CCOCC3)C[C@H]1CCN(c1ccc(Cl)cn1)C2`: -6.42%.
As for `Cc1cccc(CN2CCc3[nH]nc(C(=O)N4CCNC(=O)C4)c3C2)n1`, the cytotoxicity at 70.5 h was -10.5%.
As for `Cc1ccc(C(=O)N2C[C@@H](NS(C)(=O)=O)[C@H](C(C)C)C2)cc1O`, the cytotoxicity at 70.5 h turned out to be 1.71%.
For `Cc1nc(CN2CCOC(CNc3cccnn3)C2)oc1C` (stereo not drawn), the cytotoxicity at 70.5 h amounted to 30.3%.
`CCc1n[nH]c(C2CN(C(=O)c3cnc(C)s3)CCO2)n1` (stereo not drawn): the cytotoxicity at 70.5 h came to 23.1%.
The same measure for `CCn1nccc1CN(C)C(=O)Cn1nc(C)c(C)c1C`: -4.43%; for `CN(C)c1ncccc1CN1CCOC(C(=O)Nc2ccccc2)C1` (stereo not drawn): -7.2%.
To `COc1ccc(-n2cnnc2SCC(C)(C)O)cn1` belongs -3.59%; to `Cc1cc(CN2CC[C@H]3OCC[C@@]3(C(=O)NCc3ccco3)C2)no1`, 0.284%.
